Key:
Assay type in all cases: biochemical
[1] = target: T1, full length Aurora-A (AA 1-403) (Homo sapiens, UniProt O14965); experiment: Aurora-A inhibition assay, standard coupled enzyme system; conditions: average Ki if more than one value determined
T1 construct: full length Aurora-A (AA 1-403)
T1 sequence (O14965 1-403): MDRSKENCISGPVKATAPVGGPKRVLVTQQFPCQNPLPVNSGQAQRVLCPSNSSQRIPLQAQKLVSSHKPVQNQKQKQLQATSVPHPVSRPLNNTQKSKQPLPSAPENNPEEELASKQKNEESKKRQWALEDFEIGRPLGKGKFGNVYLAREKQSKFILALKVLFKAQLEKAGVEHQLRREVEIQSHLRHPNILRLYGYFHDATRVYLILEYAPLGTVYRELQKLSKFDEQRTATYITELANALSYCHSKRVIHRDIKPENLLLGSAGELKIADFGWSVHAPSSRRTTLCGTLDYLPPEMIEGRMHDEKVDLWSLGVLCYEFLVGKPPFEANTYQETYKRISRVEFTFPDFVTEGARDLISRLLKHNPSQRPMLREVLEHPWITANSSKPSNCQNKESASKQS

JAK2 = JAK2 (Homo sapiens, UniProt O60674); experiment: JAK2 inhibition assay (radioactive enzyme assay, as for JAK3); conditions: average Ki if more than one value determined
Chain of JAK2 (O60674 whole entry, species assumed): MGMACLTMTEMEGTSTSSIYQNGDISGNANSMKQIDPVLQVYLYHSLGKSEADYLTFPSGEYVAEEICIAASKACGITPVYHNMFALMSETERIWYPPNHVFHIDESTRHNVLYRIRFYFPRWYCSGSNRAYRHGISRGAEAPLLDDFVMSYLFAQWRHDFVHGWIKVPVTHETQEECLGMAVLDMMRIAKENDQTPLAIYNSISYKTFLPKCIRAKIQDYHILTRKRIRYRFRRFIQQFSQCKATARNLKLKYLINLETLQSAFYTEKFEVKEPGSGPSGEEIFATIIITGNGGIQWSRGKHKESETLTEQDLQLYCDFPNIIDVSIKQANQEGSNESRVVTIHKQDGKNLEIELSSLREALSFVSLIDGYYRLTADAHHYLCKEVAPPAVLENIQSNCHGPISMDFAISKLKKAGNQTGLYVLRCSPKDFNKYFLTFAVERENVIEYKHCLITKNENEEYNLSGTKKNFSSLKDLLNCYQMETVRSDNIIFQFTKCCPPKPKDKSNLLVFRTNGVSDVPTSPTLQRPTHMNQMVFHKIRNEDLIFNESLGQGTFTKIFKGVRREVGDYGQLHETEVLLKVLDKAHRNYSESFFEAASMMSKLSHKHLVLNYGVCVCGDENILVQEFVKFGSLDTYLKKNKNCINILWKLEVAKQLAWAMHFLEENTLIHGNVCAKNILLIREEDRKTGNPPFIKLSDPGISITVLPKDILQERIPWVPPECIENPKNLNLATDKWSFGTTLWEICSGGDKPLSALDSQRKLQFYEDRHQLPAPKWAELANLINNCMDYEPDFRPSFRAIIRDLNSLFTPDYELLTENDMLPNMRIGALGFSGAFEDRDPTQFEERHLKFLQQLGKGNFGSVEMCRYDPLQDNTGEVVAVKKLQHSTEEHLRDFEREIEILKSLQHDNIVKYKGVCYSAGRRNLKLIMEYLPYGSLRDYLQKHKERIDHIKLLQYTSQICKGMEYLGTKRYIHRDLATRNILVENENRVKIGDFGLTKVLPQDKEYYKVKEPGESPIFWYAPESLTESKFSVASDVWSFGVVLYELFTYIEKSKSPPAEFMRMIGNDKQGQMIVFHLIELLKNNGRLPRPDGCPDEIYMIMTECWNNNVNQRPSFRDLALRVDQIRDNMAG
Method in brief: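 Both kinases: poly(Glu)4Tyr substrate in 100 mM HEPES pH 7.4, 10 mM MgCl2, 1 mM DTT. Run 20 min at 25° C, TCA stop, filter-bound ³³P counted, Ki(app) fitted after background subtraction. JAK3: final [γ-³³P]ATP 5 μM, enzyme added as 2 nM solution. JAK2: final poly(Glu)4Tyr 15 μM, final ATP 12 μM.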

ROCK I (AA 6-553) = target: T2, ROCK I (AA 6-553) (Homo sapiens, UniProt Q13464); experiment: ROCK inhibition assay, standard coupled enzyme system ("Enzyme"); conditions: enzyme-linked assay
T2 construct: ROCK I (AA 6-553)
T2 sequence (Q13464 6-553, species assumed): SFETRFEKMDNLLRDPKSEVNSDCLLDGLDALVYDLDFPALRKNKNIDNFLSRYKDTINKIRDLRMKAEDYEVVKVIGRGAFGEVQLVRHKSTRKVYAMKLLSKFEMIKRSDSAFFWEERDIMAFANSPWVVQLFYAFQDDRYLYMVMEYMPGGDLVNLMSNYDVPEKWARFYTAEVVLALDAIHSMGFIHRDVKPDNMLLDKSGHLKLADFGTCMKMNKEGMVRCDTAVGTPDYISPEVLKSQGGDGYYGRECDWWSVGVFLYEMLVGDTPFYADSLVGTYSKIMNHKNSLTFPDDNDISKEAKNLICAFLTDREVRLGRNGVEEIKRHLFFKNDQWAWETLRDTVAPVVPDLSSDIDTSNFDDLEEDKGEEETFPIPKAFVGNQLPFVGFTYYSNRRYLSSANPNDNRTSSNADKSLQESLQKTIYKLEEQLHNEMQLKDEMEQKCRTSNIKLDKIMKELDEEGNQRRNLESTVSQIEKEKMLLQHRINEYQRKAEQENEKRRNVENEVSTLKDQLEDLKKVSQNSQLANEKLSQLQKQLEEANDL
Method in brief: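 ROCK I (AA 6-553) at 45 nM and 30 °C with 45 μM ATP and 200 μM peptide, in 100 mM HEPES pH 7.5, 10 mM MgCl2, 25 mM NaCl, 2 mM DTT, 1.5% DMSO. ADP output read by a PK/LDH coupled system: 2.5 mM PEP, 350 μM NADH, 30 μg/ml PK, 10 μg/ml LDH.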

JAK3 = target: T3, JAK3 (Homo sapiens, UniProt P52333); experiment: JAK3 inhibition assay (standard radioactive enzyme assay); conditions: average Ki if more than one value determined
T3 sequence (P52333 1-1124): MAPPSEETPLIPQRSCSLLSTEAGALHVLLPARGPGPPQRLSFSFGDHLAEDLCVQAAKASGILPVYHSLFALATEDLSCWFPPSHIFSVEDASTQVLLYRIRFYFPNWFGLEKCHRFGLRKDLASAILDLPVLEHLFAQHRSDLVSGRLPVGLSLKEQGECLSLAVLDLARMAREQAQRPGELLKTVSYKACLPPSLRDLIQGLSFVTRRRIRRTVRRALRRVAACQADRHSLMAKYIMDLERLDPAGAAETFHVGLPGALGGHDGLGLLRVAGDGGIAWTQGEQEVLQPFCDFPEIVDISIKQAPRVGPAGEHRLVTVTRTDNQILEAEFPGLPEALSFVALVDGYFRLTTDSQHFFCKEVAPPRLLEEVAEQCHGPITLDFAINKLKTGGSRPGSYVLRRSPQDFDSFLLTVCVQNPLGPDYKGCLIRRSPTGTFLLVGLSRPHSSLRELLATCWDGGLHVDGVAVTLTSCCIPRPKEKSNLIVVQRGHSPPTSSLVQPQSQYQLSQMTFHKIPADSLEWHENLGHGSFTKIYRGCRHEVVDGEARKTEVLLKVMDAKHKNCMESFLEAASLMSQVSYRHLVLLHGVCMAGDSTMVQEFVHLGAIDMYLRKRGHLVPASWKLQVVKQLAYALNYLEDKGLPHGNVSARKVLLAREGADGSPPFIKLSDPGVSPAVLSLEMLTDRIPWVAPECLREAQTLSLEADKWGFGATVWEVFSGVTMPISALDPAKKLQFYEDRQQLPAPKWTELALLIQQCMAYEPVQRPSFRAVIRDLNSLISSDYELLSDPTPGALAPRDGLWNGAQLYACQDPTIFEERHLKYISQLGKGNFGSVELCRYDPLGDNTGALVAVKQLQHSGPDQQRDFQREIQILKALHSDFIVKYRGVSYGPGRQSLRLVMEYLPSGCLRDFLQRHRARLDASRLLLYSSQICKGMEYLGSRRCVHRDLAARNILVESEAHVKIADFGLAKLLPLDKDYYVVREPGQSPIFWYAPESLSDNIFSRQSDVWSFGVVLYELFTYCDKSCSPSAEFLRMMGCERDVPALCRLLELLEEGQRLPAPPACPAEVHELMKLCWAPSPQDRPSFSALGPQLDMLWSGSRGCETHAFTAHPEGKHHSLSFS

| SMILES | Ki [1] [nM] | Ki (JAK2) [nM] | Ki (ROCK I (AA 6-553)) [nM] | Ki (JAK3) [nM] |
| --- | --- | --- | --- | --- |
| CC(=O)N1[C@H](C)CN(c2nc(-c3c[nH]c4ncc(Cl)cc34)ccc2-c2nnn[nH]2)C[C@@H]1C [Compound 120] | < 500 | < 500 | 500 to 5000 | < 500 |
| O=C(O)c1cc(Br)cc(-c2c[nH]c3ncc(Cl)cc23)c1 [Compound 177] | < 500 | < 500 | 500 to 5000 | < 500 |
| CC(C)CNc1cc(C#N)cc(-c2c[nH]c3ncc(Cl)cc23)n1 [Compound 150] | 500 to 5000 | < 500 | 500 to 5000 | < 500 |
| CC(=O)N1[C@H](C)CN(c2cccc(-c3c[nH]c4ncc(NC(=O)Oc5ccccc5)cc34)n2)C[C@@H]1C [Compound 69] | 500 to 5000 | < 500 | 500 to 5000 | < 500 |
| C[C@@H](Nc1cccc(-c2c[nH]c3ncc(Cl)cc23)n1)c1ccc(F)cc1 [Compound 131] | < 500 | < 500 | 500 to 5000 | < 500 |
| CC(=O)N1[C@H](C)CN(c2nc(-c3c[nH]c4ncc(Cl)cc34)c(F)cc2C#N)C[C@@H]1C [Compound 68] | < 500 | < 500 | 500 to 5000 | < 500 |
| CC(C)CN(C)c1cccc(-c2c[nH]c3ncc(Cl)cc23)n1 [Compound 123] | 500 to 5000 | < 500 | 500 to 5000 | < 500 |
| Fc1cnc2[nH]cc(-c3cccc(NCc4ccccc4)n3)c2c1 [Compound 48] | < 500 | < 500 | 500 to 5000 | < 500 |
| C[C@@H](CO)Nc1cccc(-c2c[nH]c3ncc(Cl)cc23)n1 [Compound 103] | 500 to 5000 | < 500 | 500 to 5000 | < 500 |
| NC(=O)c1ccc(-c2c[nH]c3ncc(Cl)cc23)nc1NCc1ccccc1 [Compound 46] | < 500 | < 500 | 500 to 5000 | < 500 |
| OC[C@H](Nc1cccc(-c2c[nH]c3ncc(Cl)cc23)n1)c1ccccc1 [Compound 100] | < 500 | < 500 | 500 to 5000 | < 500 |
| O[C@H]1CCCC[C@@H]1Nc1cccc(-c2c[nH]c3ncc(Cl)cc23)n1 [Compound 132] | < 500 | < 500 | 500 to 5000 | < 500 |
| CC(=O)N1[C@H](C)CN(c2nc(-c3c[nH]c4ncc(Cl)cc34)c(F)cc2C(N)=O)C[C@@H]1C [Compound 72] | < 500 | 500 to 5000 | 500 to 5000 | < 500 |
| CC(C)CNc1cccc(-c2c[nH]c3ncc(Cl)cc23)n1 [Compound 99] | < 500 | < 500 | 500 to 5000 | < 500 |

More lines, now with the values ahead:

| Ki [1] [nM] | Ki (JAK2) [nM] | Ki (ROCK I (AA 6-553)) [nM] | Ki (JAK3) [nM] | SMILES |
| --- | --- | --- | --- | --- |
| 500 to 5000 | 500 to 5000 | 500 to 5000 | 500 to 5000 | CC(=O)N1[C@H](C)CN(c2cccc(-c3c[nH]c4ncc(OCCN5CCOCC5)cc34)n2)C[C@@H]1C [Compound 95] |
| < 500 | < 500 | 500 to 5000 | < 500 | CC(=O)N1[C@H](C)CN(c2nc(-c3c[nH]c4ncc(Cl)cc34)cc(C)c2C#N)C[C@@H]1C [Compound 79] |
| 500 to 5000 | < 500 | 500 to 5000 | < 500 | CC(=O)N1[C@H](C)CN(c2cccc(-c3c[nH]c4ncc(NC(=O)c5cccc(C)c5)cc34)n2)C[C@@H]1C [Compound 168] |
| 500 to 5000 | < 500 | < 500 | < 500 | CC(=O)N1[C@H](C)CN(c2cccc(-c3c[nH]c4ncc(F)cc34)n2)C[C@@H]1C [Compound 50] |
| < 500 | < 500 | < 500 | < 500 | CC(=O)N1[C@H](C)CN(c2nc(-c3c[nH]c4ncc(Cl)cc34)ccc2C#N)C[C@@H]1C [Compound 92] |
| 500 to 5000 | < 500 | 500 to 5000 | < 500 | CC(=O)Nc1cnc2[nH]cc(-c3cccc(N4C[C@@H](C)N(C(C)=O)[C@@H](C)C4)n3)c2c1 [Compound 113] |
| 500 to 5000 | < 500 | 500 to 5000 | < 500 | CC(=O)N1[C@H](C)CN(c2cccc(-c3c[nH]c4ncc(NC(=O)C5CC5)cc34)n2)C[C@@H]1C [Compound 165] |
| 500 to 5000 | < 500 | 500 to 5000 | < 500 | CC(=O)N1[C@H](C)CN(c2cccc(-c3c[nH]c4ncc(NC(=O)c5cscn5)cc34)n2)C[C@@H]1C [Compound 162] |
| 500 to 5000 | < 500 | 500 to 5000 | < 500 | C/C=C(\C)C(=O)Nc1cnc2[nH]cc(-c3cccc(N4C[C@@H](C)N(C(C)=O)[C@@H](C)C4)n3)c2c1 [Compound 161] |
| 500 to 5000 | < 500 | 500 to 5000 | < 500 | CC(=O)N1[C@H](C)CN(c2cccc(-c3c[nH]c4ncc(NC(=O)C5=CCCCC5)cc34)n2)C[C@@H]1C [Compound 155] |
| 500 to 5000 | < 500 | 500 to 5000 | < 500 | CC(=O)N1[C@H](C)CN(c2cccc(-c3c[nH]c4ncc(NC(=O)CCN5CCNCC5)cc34)n2)C[C@@H]1C [Compound 128] |
| 500 to 5000 | 500 to 5000 | 500 to 5000 | 500 to 5000 | CC(=O)N1[C@H](C)CN(c2cccc(-c3c[nH]c4ncc(C(=O)N(C)C)cc34)n2)C[C@@H]1C [Compound 60] |
| 500 to 5000 | < 500 | 500 to 5000 | < 500 | CC(=O)N1[C@H](C)CN(c2cccc(-c3c[nH]c4ncc(C(=O)NC5CCCCC5)cc34)n2)C[C@@H]1C [Compound 58] |
| < 500 | < 500 | < 500 | < 500 | CC(=O)N1[C@H](C)CN(c2nc(-c3c[nH]c4ncc(Cl)cc34)ccc2[N+](=O)[O-])C[C@@H]1C [Compound 75] |
| < 500 | < 500 | 500 to 5000 | < 500 | CC(=O)N1[C@H](C)CN(c2ccc([N+](=O)[O-])c(-c3c[nH]c4ncc(Cl)cc34)n2)C[C@@H]1C [Compound 78] |
| 500 to 5000 | < 500 | 500 to 5000 | < 500 | CC(=O)N1[C@H](C)CN(c2cccc(-c3c[nH]c4ncc(NC(=O)c5ccno5)cc34)n2)C[C@@H]1C [Compound 167] |
| 500 to 5000 | < 500 | 500 to 5000 | < 500 | CC(=O)N1[C@H](C)CN(c2cccc(-c3c[nH]c4ncc(OC5CCOC5)cc34)n2)C[C@@H]1C (stereo partly drawn) [Compound 96] |
| 500 to 5000 | < 500 | 500 to 5000 | < 500 | CC(=O)N1[C@H](C)CN(c2cccc(-c3c[nH]c4ncc(C(=O)O)cc34)n2)C[C@@H]1C [Compound 47] |
| 500 to 5000 | < 500 | 500 to 5000 | < 500 | COC(=O)Nc1cnc2[nH]cc(-c3cccc(N4C[C@@H](C)N(C(C)=O)[C@@H](C)C4)n3)c2c1 [Compound 66] |
